Assay results: patent EP0750903A1, “Deodorant composition” (Coöperatie Cosun U.A., priority 1995, dated 1997)

Legend:
Assay in all cases: plate method, inhibition of growth on TSBA medium
Type in all cases: cell-based
Conditions in all cases: Table C; 1:50 dilution of an overnight culture; ester conc 400 ug/ml
[1] = test system: Micrococcus luteus ATCC 533
Experimental: (§1) The tests reproduced below have been carried out on the basis of four strains which occur in the human armpit flora, viz. Micrococcus luteus ATCC 533, Staphylococcus epidermis ATCC 155, Corynebacterium xerosis ATCC 373 and Corynebacterium minutissimum ATCC 23348 (ATCC = American Type Culture Collection, Maryland 20852, USA).
(§2) The Micrococcus luteus strain has been incubated at 30°C and the other three strains at 37°C. All strains have been tested for purity and then frozen in glycerol in liquid nitrogen. In addition, the strains have been kept on plate (TSBA medium; TSBA = trypton soya broth (medium CM 129 of Oxoid Ltd. + 1% agar), and regularly re-inoculated (at least once a week).
(§3) The abovementioned sucrose-fatty acid esters have been used in concentrations of 400-800-1600-3200-6400 mg/l.
(§4) The plate method was made use of as test method. In this method, the medium was prepared in sucrose-fatty acid solutions in the above concentrations. The plate, which was provided with a TSBA medium (see above), was then inoculated with 100 µl of culture and incubated at the desired temperature (see above). In this connection, use was made of overnight cultures in TSB (= trypton soya broth) which have been inoculated in undiluted and diluted form.
(§5) The inhibition obtained in the test method of the growth of the respective strains is shown with the values 0 (no inhibition) and with 1, 2, 3, 4 or 5 plus signs, where + 0 - 20% inhibition ++ 20 - 40% inhibition +++ 40 - 60% inhibition ++++ 60 - 80% inhibition +++++ 80 - 100% inhibition.
(§6) A blank determination without sucrose-fatty acid solution on TSBA was used as a control (pos. cont. TSBA; see Tables A and B in Examples I and II).

[2] = test system: Staphylococcus epidermis ATCC 155
Experimental: as §1, §2, §3, §4, §5, §6

[3] = test system: Corynebacterium xerosis ATCC 373
Experimental: as §1, §2, §3, §4, §5, §6

[4] = test system: Corynebacterium minutissimum ATCC 23348
Experimental: as §1, §2, §3, §4, §5, §6

| Substance | inhibition of the growth, M.luteus [1] | inhibition of the growth, S.epidermis [2] | inhibition of the growth, C.xerosis [3] | inhibition of the growth, C.minutissimum [4] |
| --- | --- | --- | --- | --- |
| sucrose hydroxystearate | +++ (+++ 40 - 60% inhibition) | 0 (0 (no inhibition)) | +++++ (+++++ 80 - 100% inhibition) | +++++ (+++++ 80 - 100% inhibition) |
| sucrose behenate | 0 (0 (no inhibition)) | 0 (0 (no inhibition)) | +++ (+++ 40 - 60% inhibition) | +++++ (+++++ 80 - 100% inhibition) |
| sorbitol stearate | 0 (0 (no inhibition)) | 0 (0 (no inhibition)) | 0 (0 (no inhibition)) | +++++ (+++++ 80 - 100% inhibition) |
| sucrose oleate | +++ (+++ 40 - 60% inhibition) | 0 (0 (no inhibition)) | +++++ (+++++ 80 - 100% inhibition) | +++++ (+++++ 80 - 100% inhibition) |
| sucrose isostearate | + (+ 0 - 20% inhibition) | 0 (0 (no inhibition)) | +++++ (+++++ 80 - 100% inhibition) | +++++ (+++++ 80 - 100% inhibition) |
| lactitol stearate | +++++ (+++++ 80 - 100% inhibition) | 0 (0 (no inhibition)) | +++++ (+++++ 80 - 100% inhibition) | +++++ (+++++ 80 - 100% inhibition) |
